Results reported in the supplement of paper PMC10307832.

What follows are cell lines tested with CCOC(=O)CCNc1cc(N2CCc3ccccc3CC2)nc(-c2ccccn2)n1 [GSK-J4] + O=C(c1cc(Cc2n[nH]c(=O)c3ccccc23)ccc1F)N1CCN(C(=O)C2CC2)CC1 [Olaparib] (partner 8 µM) (assay: relative viability (nuclei count vs DMSO), 5 days (fraction); higher = more cells survive). Settings: first compound 0.5 µM.
Method in brief: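 Lung cancer cell lines were seeded in 1536-well plates and dosed by pin tool the next day, with either a single drug or a fixed anchor-drug dose combined with five library-drug doses (not always all listed) spaced in √10 steps. Five days later, one step fixed the cells and stained their nuclei (final 0.05% Triton X-100, 1% formaldehyde, 1 ug/ml Hoechst), and nuclei were counted on 4× images. Relative viability is the nuclei count in treated wells divided by the count in vehicle wells, and each value is the median of duplicate plates.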

First: NCI-H522
Second: PC-14
The relative viability of the first is higher: 0.597 for the first, 0.304 for the second.

Going from NCI-H1666 to EKVX, the relative viability rises from 0.684 to 0.867.

Going from NCI-H1755 to NCI-H2023, the relative viability falls from 0.853 to 0.453.

Compared with HCC-78, SK-LU-1 is lower in relative viability: 0.688 for the first, 0.433 for the second.

Going from PC-3 [JPC-3] to LOU-NH91, the relative viability falls from 1.06 to 0.932.

Compared with NCI-H647, NCI-H23 is lower in relative viability: 0.456 for the first, 0.25 for the second.

First: EPLC-272H
Second: NCI-H2126
The relative viability of the first is lower: 0.722 for the first, 0.912 for the second.

First: ChaGo-K-1
Second: HCC-44
The relative viability of the first is lower: 0.384 for the first, 0.945 for the second.

First: NCI-H1734
Second: NCI-H650
The relative viability of the first is higher: 0.652 for the first, 0.356 for the second.

First: LK-2
Second: NCI-H2228
The relative viability of the first is higher: 0.675 for the first, 0.555 for the second.

First: NCI-H2342
Second: NCI-H1944
The relative viability of the first is lower: 0.368 for the first, 0.389 for the second.

Compared with Calu-6, COR-L23 is lower in relative viability: 0.559 for the first, 0.279 for the second.

First: EBC-1
Second: A549
The relative viability of the first is higher: 0.603 for the first, 0.32 for the second.

Compared with SW 900, NCI-H1299 is higher in relative viability: 0.903 for the first, 0.96 for the second.

Compared with CAL-12T, NCI-H1648 is higher in relative viability: 0.668 for the first, 0.869 for the second.

First: NCI-H520
Second: IA-LM
The relative viability of the first is lower: 0.32 for the first, 0.872 for the second.

Going from NCI-H661 to COR-L 105, the relative viability falls from 0.704 to 0.701.

Compared with NCI-H1703, NCI-H1650 is higher in relative viability: 0.385 for the first, 0.852 for the second.

Compared with NCI-H2009, SK-MES-1 is higher in relative viability: 0.603 for the first, 0.675 for the second.

In the case of SW 1573, the relative viability was 0.471.

Same assay, conditions: first compound 1.581 µM

Going from NCI-H522 to PC-14, the relative viability falls from 0.552 to 0.271.

Compared with NCI-H1666, NCI-H1755 is higher in relative viability: 0.676 for the first, 0.754 for the second.

Going from NCI-H2023 to HCC-78, the relative viability rises from 0.413 to 0.774.

Compared with SK-LU-1, PC-3 [JPC-3] is higher in relative viability: 0.465 for the first, 1.06 for the second.

First: LOU-NH91
Second: NCI-H647
The relative viability of the first is higher: 0.859 for the first, 0.471 for the second.

Going from NCI-H23 to EPLC-272H, the relative viability rises from 0.299 to 0.825.

Compared with NCI-H2126, HCC-44 is higher in relative viability: 0.895 for the first, 0.945 for the second.

Going from NCI-H1734 to NCI-H650, the relative viability falls from 0.549 to 0.371.

Compared with LK-2, NCI-H2228 is lower in relative viability: 0.628 for the first, 0.608 for the second.

Going from NCI-H2342 to NCI-H1944, the relative viability falls from 0.427 to 0.373.

First: Calu-6
Second: COR-L23
The relative viability of the first is higher: 0.567 for the first, 0.311 for the second.

First: EBC-1
Second: SW 900
The relative viability of the first is lower: 0.567 for the first, 0.935 for the second.

Going from NCI-H1299 to CAL-12T, the relative viability falls from 0.916 to 0.63.

First: NCI-H520
Second: IA-LM
The relative viability of the first is lower: 0.278 for the first, 0.9 for the second.

First: NCI-H661
Second: NCI-H1703
The relative viability of the first is higher: 0.67 for the first, 0.576 for the second.

Compared with NCI-H1650, NCI-H2009 is lower in relative viability: 0.739 for the first, 0.638 for the second.

Going from SK-MES-1 to SW 1573, the relative viability falls from 0.641 to 0.365.

Same assay, conditions: first compound 5 µM

First: PC-14
Second: NCI-H1666
The relative viability of the first is lower: 0.195 for the first, 0.786 for the second.

Going from EKVX to NCI-H1755, the relative viability falls from 0.859 to 0.841.
